# In PubChem BioAssay AID1224921 (Broad Institute, 2016):
# Calls of active or inactive are those of the source. How the calls were made is not given here.
# System: Clostridioides difficile clinical isolate growth, OD600, 24 h
# Experiment: inhibitors of Clostridioides difficile proliferation – 4-point retest, confirmation (AID 1224921)
row,Structure (SMILES),AC50
1,CCCNC(=O)Nc1ccc2c(c1)C(=O)N(C)C[C@@H](OC)[C@@H](C)CN(C)[C@H](C)CO2,> 60 µM (inactive)
2,C[C@@H]1CN([C@@H](C)CO)C(=O)c2cccc(NC(=O)Nc3ccc(C(F)(F)F)cc3)c2O[C@@H]1CN(C)Cc1ccc(-c2ccccc2)cc1,< 0.5 µM
3,C[C@@H]1CN([C@@H](C)CO)C(=O)c2cccc(NC(=O)Nc3ccc(F)cc3)c2O[C@@H]1CN(C)Cc1ccc(-c2ccccc2)cc1,< 0.5 µM
4,N#C[C@@H]1[C@H](c2ccc(C#Cc3ccc(F)cc3)cc2)[C@@H](CO)N1C(=O)C1CCCC1,> 70 µM (inactive)
5,O=C(NCC[C@H]1CC[C@@H](NC(=O)c2cccnc2)[C@@H](CO)O1)Nc1ccc(C(F)(F)F)cc1,2.9 µM
6,Cc1noc(C)c1S(=O)(=O)Nc1ccc2c(c1)C(=O)N([C@@H](C)CO)C[C@H](C)[C@@H](CN(C)Cc1ccc3c(c1)OCO3)OCCCC[C@@H](C)O2,11.7 µM
7,CCNC(=O)C[C@@H]1CC[C@@H]2[C@H](COC[C@@H](O)CN2C(=O)Nc2ccc(Cl)c(Cl)c2)O1,16.5 µM
8,C[C@H](NC(=O)C[C@@H]1CC[C@@H]2[C@H](COC[C@H](O)CN2C(=O)Nc2cccc(Cl)c2)O1)c1ccccc1,14.4 µM
9,C[C@H](CO)N1C[C@H](C)[C@H](CN(C)CC2CCCCC2)OCCCC[C@H](C)Oc2ccc(NC(=O)Nc3cccc4ccccc34)cc2C1=O,29 µM
10,O=C(Nc1ccc(-c2ccccc2)cc1)[C@H]1[C@H](CO)[C@H]2Cn3c(cccc3=O)[C@H]2N1CC1CCCCC1,> 60 µM (inactive)
11,Cc1cc(C(=O)Nc2cccc3c2O[C@@H](CN(C)Cc2ccc(-c4ccccc4)cc2)[C@H](C)CN([C@@H](C)CO)C3=O)n(C)n1,1.01 µM
12,O=C(C[C@H]1CC[C@@H]2[C@H](COC[C@H](O)CN2C(=O)Nc2ccc(Cl)c(Cl)c2)O1)NCc1ccccc1,< 1.95 µM
13,CO[C@@H](CN(C)C(=O)C1CCOCC1)[C@@H](C)CN(C(=O)Nc1ccc(C(F)(F)F)cc1)[C@H](C)CO,6.17 µM
14,O=C(C[C@H]1CC[C@@H]2[C@H](COC[C@H](O)CN2C(=O)Nc2ccc(Cl)c(Cl)c2)O1)NCc1ccc(Cl)cc1,1.88 µM
15,O=C(NCC[C@@H]1CC[C@@H](NC(=O)C2CC2)[C@@H](CO)O1)Nc1ccc(C(F)(F)F)cc1,10.7 µM
16,O=C(C[C@@H]1CC[C@@H]2[C@H](COC[C@@H](O)CN2C(=O)Nc2cc(Cl)cc(Cl)c2)O1)N1CCOCC1,14.2 µM
17,CNC[C@@H]1OCCCC[C@H](C)Oc2ccc(NC(=O)Nc3ccc(C(F)(F)F)cc3)cc2C(=O)N([C@H](C)CO)C[C@H]1C,19.4 µM
18,CC(=O)N[C@@H]1CC[C@H](CCNC(=O)Nc2ccc(C(F)(F)F)cc2)O[C@H]1CO,11.8 µM
19,C[C@@H]1CN([C@@H](C)CO)C(=O)Cc2cc(NS(C)(=O)=O)ccc2O[C@H]1CN(C)Cc1ccc(Cl)c(Cl)c1,8.49 µM
20,CO[C@@H]1CN(C)C(=O)c2cc(NC(=O)Nc3cc(Cl)cc(Cl)c3)ccc2OC[C@H](C)NC[C@H]1C,5.04 µM
21,CO[C@@H](CN(C)Cc1cc(F)ccc1F)[C@H](C)CN(C(=O)Nc1ccc(C(F)(F)F)cc1)[C@@H](C)CO,3.71 µM
22,O=C(C[C@@H]1CC[C@@H]2[C@H](COC[C@H](O)CN2C(=O)Nc2ccc(Cl)c(Cl)c2)O1)NCc1ccc(Cl)cc1,0.915 µM
23,CO[C@@H]1CN(C)C(=O)c2ccc(NC(=O)Nc3cc(Cl)cc(Cl)c3)cc2OC[C@H](C)NC[C@H]1C,7.81 µM
24,C[C@@H]1CN([C@@H](C)CO)C(=O)c2cccc(NC(=O)Nc3ccc(F)cc3)c2O[C@@H]1CN(C)Cc1ccc(C(F)(F)F)cc1,2.37 µM

row,Structure (SMILES),AC50
1,C[C@@H]1CN([C@H](C)CO)C(=O)Cc2cc(NC(=O)CCCN(C)C)ccc2O[C@H]1CN(C)Cc1ccc(-c2ccccc2)cc1,19 µM
2,C[C@@H]1CN([C@H](C)CO)C(=O)c2cc(NC(=O)Nc3ccc(C(F)(F)F)cc3)ccc2O[C@@H](C)CCCCO[C@@H]1CN(C)CC1CCCCC1,14.6 µM
3,O=C(C[C@@H]1CC[C@@H]2[C@H](COC[C@H](O)CN2C(=O)Nc2ccc(C(F)(F)F)cc2)O1)NCC1CCCCC1,1.09 µM
4,CO[C@H](CN(C)C(=O)C1CC1)[C@@H](C)CN(C(=O)Nc1ccc(C(F)(F)F)cc1)[C@H](C)CO,3.59 µM
5,O=C1C[C@@](C(=O)NCCN2CCOCC2)(c2ccc([N+](=O)[O-])cc2)[C@@H](c2ccc(CO)cc2I)N1CC12CC3CC(CC(C3)C1)C2,18.8 µM
6,CO[C@H](CN(C)C(=O)C1CC1)[C@H](C)CN(C(=O)Nc1ccc(C(F)(F)F)cc1)[C@@H](C)CO,14.7 µM
7,C[C@H](CO)N1C[C@H](C)[C@@H](CN(C)C(=O)Nc2ccc(C(F)(F)F)cc2)Oc2ccc(NC(=O)C3CC3)cc2C1=O,15.5 µM
8,O=C(C[C@H]1CC[C@H]2[C@@H](COC[C@@H](O)CN2C(=O)c2cnccn2)O1)NCc1ccc(Cl)cc1,> 60 µM (inactive)
9,O=C(C[C@@H]1CC[C@H]2[C@@H](COC[C@H](O)CN2C(=O)Nc2ccc(Cl)c(Cl)c2)O1)NCc1ccc(Cl)c(Cl)c1,1.1 µM
10,COc1ccccc1CNC(=O)C[C@@H]1CC[C@@H]2[C@H](COC[C@@H](O)CN2C(=O)Nc2ccc(C(F)(F)F)cc2)O1,1.6 µM
11,CO[C@@H]1CN(C)C(=O)c2ccc(NC(=O)C3CCC3)cc2OC[C@@H](C)N(C(=O)Nc2ccc(C(F)(F)F)cc2)C[C@H]1C,11.6 µM
12,O=C(NCC[C@H]1CC[C@H](NC(=O)c2cccnc2)[C@H](CO)O1)Nc1ccc(C(F)(F)F)cc1,1.6 µM
13,CO[C@H]1CN(C)C(=O)c2cc(NC(C)=O)ccc2OC[C@@H](C)N(Cc2nccs2)C[C@@H]1C,> 60 µM (inactive)
14,C[C@@H]1CN([C@H](C)CO)S(=O)(=O)c2ccc(C#Cc3cccc(F)c3)cc2O[C@H]1CN(C)C,> 60 µM (inactive)
15,C[C@H](CO)N1C[C@H](C)[C@@H](CN(C)Cc2ccccc2)Oc2ccc(NC(=O)Nc3ccc(C(F)(F)F)cc3)cc2CC1=O,31.4 µM
16,O=C(NCC[C@@H]1CC[C@H](NC(=O)C2CCCCC2)[C@H](CO)O1)Nc1ccc(Cl)cc1,30 µM
17,C[C@@H]1CCCCO[C@@H](CN(C)C(=O)CCCN(C)C)[C@H](C)CN([C@H](C)CO)C(=O)c2cc(NC(=O)Nc3ccc(C(F)(F)F)cc3)ccc2O1,7.16 µM
18,CO[C@H](CN(C)S(=O)(=O)c1cn(C)cn1)[C@@H](C)CN(C(=O)Nc1ccc(C(F)(F)F)cc1)[C@H](C)CO,2.16 µM
19,C[C@@H](NC(=O)C[C@H]1CC[C@@H]2[C@H](COC[C@H](O)CN2C(=O)Nc2cc(Cl)cc(Cl)c2)O1)c1ccccc1,10.9 µM
20,CO[C@@H](CN(C)C(=O)C1CC1)[C@H](C)CN(C(=O)Nc1ccc(C(F)(F)F)cc1)[C@@H](C)CO,3.04 µM
21,O=C(C[C@H]1CC[C@H]2[C@@H](COC[C@H](O)CN2C(=O)Nc2ccc(Cl)c(Cl)c2)O1)NCc1ccccc1,1.11 µM
22,C[C@@H]1CN([C@H](C)CO)S(=O)(=O)c2ccc(C#CCC3CCCC3)cc2O[C@@H]1CN(C)C(=O)CN(C)C,17.6 µM
23,CNC(=O)C[C@@H]1CC[C@H]2[C@@H](COC[C@@H](O)CN2C(=O)Nc2ccc(Cl)c(Cl)c2)O1,11.9 µM
24,O=C(NCC[C@@H]1CC[C@H](NC(=O)c2cccnc2)[C@@H](CO)O1)Nc1ccc(C(F)(F)F)cc1,17 µM

row,Structure (SMILES),AC50
1,C[C@@H]1CN([C@@H](C)CO)C(=O)c2cc(NC(=O)Nc3cccc4ccccc34)ccc2O[C@@H](C)CCCCO[C@H]1CN(C)CC1CCCCC1,32.1 µM
2,C[C@@H]1CN([C@H](C)CO)C(=O)c2cc(NC(=O)Nc3ccc(C(F)(F)F)cc3)ccc2O[C@@H](C)CCCCO[C@H]1CN(C)Cc1ccc2c(c1)OCO2,7.9 µM
3,COc1cccc(C#Cc2cnc3c(c2)C(=O)N([C@H](C)CO)C[C@H](C)[C@@H](CN(C)C)O3)c1,33.2 µM
4,O=C(C[C@H]1CC[C@@H]2[C@H](COC[C@@H](O)CN2C(=O)Nc2cc(Cl)cc(Cl)c2)O1)N1CCOCC1,15.3 µM
5,COc1ccc(CN(C)C[C@@H]2OCCCC[C@H](C)Oc3ccc(NC(=O)Nc4cccc5ccccc45)cc3C(=O)N([C@H](C)CO)C[C@H]2C)cc1,22.6 µM
6,C[C@@H]1CCCCO[C@@H](CN(C)Cc2ccccc2)[C@H](C)CN([C@@H](C)CO)C(=O)c2cc(NC(=O)Nc3ccc(F)cc3)ccc2O1,> 16 µM (inactive)
7,O=C(C[C@@H]1C[C@H]2c3cc(NC(=O)NC4CCCC4)ccc3O[C@H]2[C@H](CO)O1)NCc1ccc2c(c1)OCO2,> 60 µM (inactive)
8,CO[C@@H](CN(C)Cc1cc(F)ccc1F)[C@@H](C)CN(C(=O)Nc1ccc(C(F)(F)F)cc1)[C@H](C)CO,6.79 µM
9,CCCN(C)C[C@@H]1OCCCC[C@H](C)Oc2ccc(NC(=O)Nc3ccc(C(F)(F)F)cc3)cc2C(=O)N([C@@H](C)CO)C[C@@H]1C,12.5 µM
10,C[C@H](C(=O)N(C)C[C@@H]1OCc2ccccc2-c2ccccc2C(=O)N([C@H](C)CO)C[C@@H]1C)c1ccccc1,> 60 µM (inactive)
11,C[C@@H]1CCCCO[C@H](CN(C)Cc2ccc3c(c2)OCO3)[C@@H](C)CN([C@@H](C)CO)C(=O)c2cc(NS(=O)(=O)c3cccs3)ccc2O1,13.8 µM
12,CCC(=O)N[C@@H]1CC[C@H](CCNC(=O)Nc2ccc(C(F)(F)F)cc2)O[C@H]1CO,7.27 µM
13,C[C@@H]1CN([C@@H](C)CO)C(=O)c2cc(NS(=O)(=O)c3cn(C)cn3)ccc2O[C@@H](C)CCCCO[C@@H]1CN(C)C(=O)Nc1ccc(C(F)(F)F)cc1,5.78 µM
14,O=C(C[C@@H]1CC[C@@H]2[C@H](COC[C@@H](O)CN2C(=O)Nc2cccc(Cl)c2)O1)N1CCCCC1,18.7 µM
15,CO[C@H]1CN(C)C(=O)c2ccc(NC(=O)c3cccc(F)c3)cc2OC[C@@H](C)N(C(C)=O)C[C@@H]1C,> 60 µM (inactive)
16,O=C(C[C@@H]1CC[C@@H]2[C@H](COC[C@@H](O)CN2C(=O)Nc2ccc(Cl)c(Cl)c2)O1)NCc1ccccc1,1.4 µM
17,CO[C@H](CN(C)S(=O)(=O)c1cn(C)cn1)[C@@H](C)CN(C(=O)Nc1ccc(C(F)(F)F)cc1)[C@@H](C)CO,2.93 µM
18,O=C(C[C@H]1CC[C@H]2[C@@H](COC[C@H](O)CN2C(=O)Nc2ccc(Cl)c(Cl)c2)O1)NCc1ccc(Cl)c(Cl)c1,0.886 µM
19,N#C[C@H]1[C@H](c2ccc(C#Cc3cccc(F)c3)cc2)[C@@H](CO)N1C(=O)C1CCC1,> 16 µM (inactive)
20,CO[C@H]1CN(C)C(=O)c2cc(NC(=O)Nc3ccc(Cl)c(Cl)c3)ccc2OC[C@H](C)NC[C@H]1C,9.51 µM
21,O=C(C[C@@H]1CC[C@H]2[C@@H](COC[C@@H](O)CN2C(=O)Nc2cc(Cl)cc(Cl)c2)O1)NCC1CC1,16.2 µM
22,CCC(=O)N[C@@H]1CC[C@H](CCNC(=O)Nc2ccc(C(F)(F)F)cc2)O[C@@H]1CO,4.29 µM
